Results as given in PubChem BioAssay (NCI).
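The concentration for 50% growth inhibition is given as GI50. TGI: concentration producing complete growth inhibition.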

Tests used:
Assay in all cases: inhibition of tumour cell growth, NCI panel, 384-well format
[1] = test system: IGROV1 ovarian
[2] = test system: SN12C renal
[3] = test system: COLO 205 colon
[4] = test system: SK-MEL-5 melanoma
[5] = test system: HL-60(TB) leukemia
[6] = test system: MCF7 breast
[7] = test system: HCT-15 colon
[8] = test system: MDA-MB-435 melanoma
[9] = test system: HS 578T breast
[10] = test system: SK-MEL-28 melanoma
[11] = test system: UACC-257 melanoma
[12] = test system: SW-620 colon
[13] = test system: MDA-MB-231 breast
[14] = test system: HCT-116 colon
[15] = test system: EKVX NSCLC
[16] = test system: NCI-H226 lung
[17] = test system: 786-0 renal
[18] = test system: T-47D breast
[19] = test system: MDA-MB-468 breast
[20] = test system: ACHN renal
[21] = test system: SF-268 CNS
[22] = test system: OVCAR-5 ovarian
[23] = test system: U251 glioblastoma
[24] = test system: NCI-H23 lung
[25] = test system: CAKI-1 renal
[26] = test system: OVCAR-3 ovarian
[27] = test system: NCI-H460 NSCLC
[28] = test system: LOX IMVI melanoma
[29] = test system: MOLT-4 leukemia
[30] = test system: NCI-H522 lung
[31] = test system: RPMI-8226 leukemia
[32] = test system: SNB-75 CNS
[33] = test system: HCC-2998 colon
[34] = test system: NCI/ADR-RES ovarian
[35] = test system: BT-549 breast
[36] = test system: HT29 colon
[37] = test system: SNB-19 CNS
[38] = test system: OVCAR-8 ovarian
[39] = test system: UO-31 renal
[40] = test system: PC-3 prostate
[41] = test system: NCI-H322M lung
[42] = test system: HOP-62 NSCLC
[43] = test system: KM12 colon
[44] = test system: SK-OV-3 ovarian
[45] = test system: UACC-62 melanoma
[46] = test system: M14 melanoma
[47] = test system: RXF 393 renal
[48] = test system: MALME-3M melanoma
[49] = test system: SF-539 CNS
[50] = test system: A498 renal
[51] = test system: HOP-92 NSCLC
[52] = test system: TK-10 renal
[53] = test system: A549 NSCLC
[54] = test system: DU-145 prostate
[55] = test system: SF-295 CNS
[56] = test system: OVCAR-4 ovarian
[57] = test system: SR leukemia

For `C[C@]12CC[C@H](O)CC1=CC[C@@H]1[C@@H]2CC[C@]2(C)C(c3cccnc3)=CC[C@@H]12`, the GI50 [1] was 60.4 µM, the TGI [1] was > 100 µM and the GI50 [2] was > 100 µM. For the same molecule, the TGI [2] was > 100 µM, the GI50 [3] was 42.1 µM and the TGI [3] was > 100 µM. For the same molecule, the GI50 [4] was > 100 µM, the TGI [4] was > 100 µM and the GI50 [5] was 4.06 µM. For the same molecule, the TGI [5] was 10.1 µM, the GI50 [6] was > 100 µM and the TGI [6] was > 100 µM. For the same molecule, the GI50 [7] was 9.74 µM, the TGI [7] was > 100 µM and the GI50 [8] was > 100 µM. The TGI [8] was > 100 µM, the GI50 [9] was 9.52 µM and the TGI [9] was 49 µM. The GI50 [10] was > 100 µM, the TGI [10] was > 100 µM and the GI50 [11] was > 100 µM. For the same molecule, the TGI [11] was > 100 µM, the GI50 [12] was > 100 µM and the TGI [12] was > 100 µM. The GI50 [13] was > 100 µM, the TGI [13] was > 100 µM and the GI50 [14] was 57 µM. For the same molecule, the TGI [14] was > 100 µM, the GI50 [15] was 25.9 µM and the TGI [15] was > 100 µM. The GI50 [16] was 4.86 µM, the TGI [16] was > 100 µM and the GI50 [17] was 1.93 µM. The TGI [17] was 3.88 µM, the GI50 [18] was > 100 µM and the TGI [18] was > 100 µM. The GI50 [19] was 5.46 µM, the TGI [19] was > 100 µM and the GI50 [20] was 22.9 µM. The TGI [20] was > 100 µM, the GI50 [21] was > 100 µM and the TGI [21] was > 100 µM. For the same molecule, the GI50 [22] was > 100 µM, the TGI [22] was > 100 µM and the GI50 [23] was > 100 µM. The TGI [23] was > 100 µM, the GI50 [24] was > 100 µM and the TGI [24] was > 100 µM. For the same molecule, the GI50 [25] was 52.8 µM, the TGI [25] was > 100 µM and the GI50 [26] was > 100 µM. For the same molecule, the TGI [26] was > 100 µM, the GI50 [27] was > 100 µM and the TGI [27] was > 100 µM. The GI50 [28] was 4.93 µM, the TGI [28] was > 100 µM and the GI50 [29] was 2.99 µM. For the same molecule, the TGI [29] was 25 µM, the GI50 [30] was > 100 µM and the TGI [30] was > 100 µM. The GI50 [31] was 2.36 µM, the TGI [31] was 4.65 µM and the GI50 [32] was > 100 µM. The TGI [32] was > 100 µM, the GI50 [33] was > 100 µM and the TGI [33] was > 100 µM. The GI50 [34] was > 100 µM, the TGI [34] was > 100 µM and the GI50 [35] was 9.12 µM. For the same molecule, the TGI [35] was 69.7 µM, the GI50 [36] was 15.2 µM and the TGI [36] was 96.1 µM. The GI50 [37] was > 100 µM, the TGI [37] was > 100 µM and the GI50 [38] was > 100 µM. The TGI [38] was > 100 µM, the GI50 [39] was > 100 µM and the TGI [39] was > 100 µM. The GI50 [40] was > 100 µM, the TGI [40] was > 100 µM and the GI50 [41] was > 100 µM. The TGI [41] was > 100 µM, the GI50 [42] was 20 µM and the TGI [42] was > 100 µM. For the same molecule, the GI50 [43] was 38.3 µM, the TGI [43] was > 100 µM and the GI50 [44] was > 100 µM. The TGI [44] was > 100 µM, the GI50 [45] was > 100 µM and the TGI [45] was > 100 µM. For the same molecule, the GI50 [46] was > 100 µM, the TGI [46] was > 100 µM and the GI50 [47] was 1.83 µM. The TGI [47] was 4.72 µM, the GI50 [48] was 3.99 µM and the TGI [48] was 61.5 µM. The GI50 [49] was > 100 µM, the TGI [49] was > 100 µM and the GI50 [50] was 15.8 µM. The TGI [50] was 45.1 µM, the GI50 [51] was 25.2 µM and the TGI [51] was > 100 µM. For the same molecule, the GI50 [52] was > 100 µM, the TGI [52] was > 100 µM and the GI50 [53] was 63.9 µM. For the same molecule, the TGI [53] was > 100 µM, the GI50 [54] was > 100 µM and the TGI [54] was > 100 µM.

In the case of `O=C(O)CCCCC(CCSCc1ccccc1)SCc1ccccc1` (stereo unspecified), the GI50 [1] is reported as 68.3 µM, the TGI [1] is reported as > 100 µM and the GI50 [2] is reported as > 100 µM. The TGI [2] was > 100 µM, the GI50 [3] was > 100 µM and the TGI [3] was > 100 µM. The GI50 [4] was 33.4 µM, the TGI [4] was > 100 µM and the GI50 [5] was 58.8 µM. The TGI [5] was > 100 µM, the GI50 [6] was 66.9 µM and the TGI [6] was > 100 µM. The GI50 [7] was 45.1 µM, the TGI [7] was > 100 µM and the GI50 [8] was > 100 µM. The TGI [8] was > 100 µM, the GI50 [9] was > 100 µM and the TGI [9] was > 100 µM. The GI50 [10] was > 100 µM, the TGI [10] was > 100 µM and the GI50 [11] was 62.2 µM. The TGI [11] was > 100 µM, the GI50 [13] was > 100 µM and the TGI [13] was > 100 µM. For the same molecule, the GI50 [14] was 47.5 µM, the TGI [14] was > 100 µM and the GI50 [15] was 37.3 µM. The TGI [15] was > 100 µM, the GI50 [16] was 97.6 µM and the TGI [16] was > 100 µM. For the same molecule, the GI50 [18] was 68.7 µM, the TGI [18] was > 100 µM and the GI50 [19] was 39.7 µM. The TGI [19] was > 100 µM, the GI50 [20] was > 100 µM and the TGI [20] was > 100 µM. The GI50 [21] was > 100 µM, the TGI [21] was > 100 µM and the GI50 [55] was 39.3 µM. For the same molecule, the TGI [55] was > 100 µM, the GI50 [22] was > 100 µM and the TGI [22] was > 100 µM. For the same molecule, the GI50 [23] was 45.3 µM, the TGI [23] was > 100 µM and the GI50 [24] was 50.5 µM. For the same molecule, the TGI [24] was > 100 µM, the GI50 [56] was 59 µM and the TGI [56] was > 100 µM. For the same molecule, the GI50 [25] was > 100 µM, the TGI [25] was > 100 µM and the GI50 [26] was 45.2 µM. For the same molecule, the TGI [26] was > 100 µM, the GI50 [27] was 34.2 µM and the TGI [27] was > 100 µM. For the same molecule, the GI50 [28] was > 100 µM, the TGI [28] was > 100 µM and the GI50 [57] was 22.6 µM. The TGI [57] was 67.1 µM, the GI50 [29] was > 100 µM and the TGI [29] was > 100 µM. The GI50 [30] was 27.6 µM, the TGI [30] was 73.3 µM and the GI50 [31] was 33.7 µM. The TGI [31] was 84.4 µM, the GI50 [32] was > 100 µM and the TGI [32] was > 100 µM. The GI50 [33] was 47.5 µM, the TGI [33] was > 100 µM and the GI50 [34] was > 100 µM. The TGI [34] was > 100 µM, the GI50 [35] was > 100 µM and the TGI [35] was > 100 µM. The GI50 [36] was 53.7 µM, the TGI [36] was > 100 µM and the GI50 [37] was 94 µM. The TGI [37] was > 100 µM, the GI50 [38] was > 100 µM and the TGI [38] was > 100 µM. The GI50 [40] was 59.6 µM, the TGI [40] was > 100 µM and the GI50 [41] was 90.6 µM. The TGI [41] was > 100 µM, the GI50 [42] was 50.4 µM and the TGI [42] was > 100 µM. For the same molecule, the GI50 [43] was 45.4 µM, the TGI [43] was > 100 µM and the GI50 [44] was > 100 µM. For the same molecule, the TGI [44] was > 100 µM, the GI50 [45] was 75.7 µM and the TGI [45] was > 100 µM. For the same molecule, the GI50 [46] was > 100 µM, the TGI [46] was > 100 µM and the GI50 [47] was > 100 µM. The TGI [47] was > 100 µM, the GI50 [48] was > 100 µM and the TGI [48] was > 100 µM. For the same molecule, the GI50 [49] was > 100 µM, the TGI [49] was > 100 µM and the GI50 [50] was 42.3 µM. The TGI [50] was > 100 µM, the GI50 [51] was > 100 µM and the TGI [51] was > 100 µM. For the same molecule, the GI50 [52] was 50.2 µM, the TGI [52] was > 100 µM and the GI50 [53] was 44 µM. For the same molecule, the TGI [53] was > 100 µM, the GI50 [54] was 64 µM and the TGI [54] was > 100 µM.
